Data published in PMC10849753, “Antiproliferative activity of platinum(II) and copper(II) complexes containing novel biquinoxaline ligands” (Metallomics: Integrated Biometal Science, 2024).

Legend:
EtBr-bound CT-DNA = test: Fluorescence quenching of EtBr-pretreated CT-DNA (Stern–Volmer); format: binding, calf; set-up: unit not given here; conditions: 0 to 160 μM compounds
Method: In order to obtain the linear Stern–Volmer quenching constant (Ksv), a Thermo-Scientific Lumina Fluorescence Spectrometer was used to conduct the flourometric measurements of 10 μM ethidium bromide (EtBr)-pretreated CT-DNA solutions in the presence of 0 to 160 μM compounds.[31],[36] The excitation wavelength was adjusted at 478 nm, and emissions ware observed at about 610 nm.

A549 cells = test: MTT cell viability assay; format: cell-based, human
Method: (§1) Cell culture growth conditions: Selected cancer cell lines from different origins, including human glioblastoma A172 (CRL-1620), LN229 (CRL-2611), U87 (HTB-14) cell lines, human cervix HeLa (ATCC, CCL-2), human breast MDA -231 (HTB-26), human prostate PC-3 (ATCC, CRL-1435), human lung A-549 (CCL-185), and non-cancer Chinese hamster ovary CHOK1 cell line (CCL61) (which was used as control) were purchased from American Type Culture Collection (ATCC, USA). These cultures were grown in Dulbecco's modified Eagle's medium-F12 (DMEM/F12, #D0547, Sigma-Aldrich) supplemented with 5% fetal bovine serum (#10500, Gibco) and 1% antibiotic-antimycotic (#15240, Gibco), and incubated at 37°C and 5% CO2. They were harvested and used for the following assays after reaching 70–80% confluency.
(§2) The used cell lines (A172, LN229, U87, HeLa, MDA-231, PC-3, A549, and CHO-K1) were harvested and seeded (6 × 10^3 cells/well) into the 96-well plates and incubated at 37°C and 5% CO2 for 24 h. After that, the synthesized Cu(II) and Pt(II) complexes, at a concentration range of 6.25 to 100 μM in DMEM-F12, were added to the cell monolayers and incubated at 37°C and 5% CO2 for 24, 48, and 72 h. The dose–response relationships of the synthesized complexes were determined by using an MTT colorimetric agent (3-[4,5-dimethylthiazol-2-yl]-2,5-diphenyltetrazolium bromide, #M5655, Sigma-Aldrich), which is reduced by the mitochondrial enzymes of the metabolically active live cells and converted into a purple formazan product. The MTT stock solution was later dissolved in a phosphate buffer solution (PBS, 5 mg/ml, w/v) and, then, 5 μg/ml of MTT in DMEM was added into each well and incubated at 37°C and 5% CO2 for 4 h. DMSO (#D 8418, Sigma-Aldrich), as a dissolving solution for formazan crystals, was added into each well and placed in a shaker for 2 h. The absorbance at a test wavelength of 570 nm and a reference wavelength of 630 nm was measured on a microplate reader.

LN229 cells = test: MTT cell viability assay; format: cell-based, human
Method: as §1, §2

HeLa cells [1] = test: MTT cell viability assay; format: cell-based, human
Method: as §1, §2

PC3 cells = test: MTT cell viability assay; format: cell-based, human
Method: as §1, §2

MDA231 cells = test: MTT cell viability assay; format: cell-based, human
Method: as §1, §2

A172 cells = test: MTT cell viability assay; format: cell-based, human
Method: as §1, §2

[2] = biological target: T1, human serum albumin (HSA) (Homo sapiens, UniProt P02768); test: HSA fluorescence quenching titration; format: binding; set-up: unit not given here; conditions: 1 μM HSA, 0-50 μM complexes
T1 sequence (P02768 25-609): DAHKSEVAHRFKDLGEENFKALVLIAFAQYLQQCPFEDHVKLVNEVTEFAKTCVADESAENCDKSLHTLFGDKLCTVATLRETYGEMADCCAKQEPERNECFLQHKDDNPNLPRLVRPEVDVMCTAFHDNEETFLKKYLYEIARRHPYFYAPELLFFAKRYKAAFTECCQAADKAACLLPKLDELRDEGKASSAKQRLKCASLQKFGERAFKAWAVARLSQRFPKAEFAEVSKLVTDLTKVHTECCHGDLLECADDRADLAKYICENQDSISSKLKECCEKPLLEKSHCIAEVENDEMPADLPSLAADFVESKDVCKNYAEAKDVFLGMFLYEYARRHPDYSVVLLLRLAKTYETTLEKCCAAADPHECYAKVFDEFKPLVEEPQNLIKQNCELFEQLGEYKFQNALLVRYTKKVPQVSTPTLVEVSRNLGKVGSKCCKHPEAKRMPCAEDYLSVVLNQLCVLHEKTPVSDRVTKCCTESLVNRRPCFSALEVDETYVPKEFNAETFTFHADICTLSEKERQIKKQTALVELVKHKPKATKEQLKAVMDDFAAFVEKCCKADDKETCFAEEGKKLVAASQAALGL
Method: Tests involving fluorescence titration were conducted by maintaining the concentration of 1 μM HSA and changing the concentrations of the complexes between 0 and 50 μM in 5 mM Tris HCl buffer. The fluorescence spectral measurements were made at […] to 500 nm after exciting the solution at 280 nm.

HeLa cells [3] = test: Matrigel invasion analysis; format: cell-based, human; conditions: 6.25 and 12.5 μM, 24 h, vs negative control
Method: The analysis was completed with U87 and HeLa cell lines to assess the metastatic potential of tumor cells using transwell inserts with an 8 μm pore size polycarbonate membrane (Corning Costar, Cambridge, MA, USA) coated with 1/5 of Matrigel (Beckton Dickinson, Bedford, MA, USA) and air-dried at room temperature. After seeding the U87 and HeLa cell lines (3 × 10^5cells/insert), the complex concentrations were selected as 6.25 or 12.5 μM and incubated at 37°C in a humidified incubator with 5% CO2 for 24 h. The cell monolayers in the transwell inserts were fixed with ice-cold methanol and stained with 0.05% crystal violet for the analysis. The invasion of the cells to the basolateral side of the inserts was investigated using a light microscope with 40× magnification.

[4] = biological target: T1, human serum albumin (HSA); test: HSA thermal denaturation; format: binding; conditions: HSA alone 114°C; 280 nm
Method: The HSA thermal decomposition was followed at 280 nm upon increasing the temperature from 30°C to 130°C at a 1°C min^−1 rate from the spectral change. In order to better examine the processes involving the interaction of metal complexes and protein structure, viscometric titration was carried out in the same manner as for the nucleic acid.

[5] = biological target: T1, human serum albumin (HSA); test: UV titration with HSA; conditions: binding to HSA, 310-340 K
Method: The change in the electronic absorption spectrum of the complexes in the presence and the absence of CT-DNA was followed using an HP Agilent8453 Spectrophotometer. During the measurements, the concentration of the compounds was kept constant [Cu(tpbq)Cl2 = 3.0 × 10^−3 M; Cu(ttbq)Cl2 = 0.50 × 10^−3 M; Pt(tpbq)Cl2 = 3.0 × 10^−3 M; Pt(ttbq)Cl2 = 3.0 × 10^−3 M)], while the CT-DNA concentration was changed depending on the R (R=[DNA]/[complex]) value of 0 to 10. […] The optimal incubation time was determined as 30 min for Cu(ttbq)Cl2, 60 min for Pt(tpbq)Cl2, and 45 min for Cu(tpbq)Cl2 and Pt(ttbq)Cl2 at 37°C spectroscopically. […] The optimal incubation time for HSA binding titrations was determined as 30 min for Cu(ttbq)Cl2 and Pt(ttbq)Cl2, and 60 min for Cu(tpbq) Cl2 and Pt(tpbq)Cl2 spectroscopically.[37]

Row | IC50 (A549 cells; A549, 24 h exposure) | IC50 (A549 cells; A549, 48 h exposure) | IC50 (A549 cells; A549, 72 h exposure) | IC50 (HeLa cells [1]; 24 h exposure) | IC50 (HeLa cells [1]; 48 h exposure) | IC50 (HeLa cells [1]; 72 h exposure) | IC50 (PC3 cells; PC3, 24 h exposure) | IC50 (PC3 cells; PC3, 48 h exposure) | IC50 (PC3 cells; PC3, 72 h exposure) | KSV (Stern–Volmer quenching constant) [2] | SMILES | KSV (Stern–Volmer quenching constant) (EtBr-bound CT-DNA) | IC50 (LN229 cells; LN229, 24 h exposure) | IC50 (LN229 cells; LN229, 48 h exposure) | IC50 (LN229 cells; LN229, 72 h exposure) | IC50 (MDA231 cells; MDA231, 24 h exposure) | IC50 (MDA231 cells; MDA231, 48 h exposure) | IC50 (MDA231 cells; MDA231, 72 h exposure) | IC50 (A172 cells; A172, 24 h exposure) | IC50 (A172 cells; A172, 48 h exposure) | IC50 (A172 cells; A172, 72 h exposure) | further results
1 | > 100 µM | > 100 µM | > 100 µM | > 100 µM | > 100 µM | > 100 µM | > 100 µM | > 100 µM | > 100 µM | 0.0059 | [Cl][Cu][Cl].c1ccc(-c2nc3ccc(-c4ccc5nc(-c6ccccn6)c(-c6ccccn6)nc5c4)cc3nc2-c2ccccn2)nc1 [Cu(tpbq)Cl2] | 0.0105 | > 100 µM | > 100 µM | > 100 µM | 72.1 ± 26 µM | > 100 µM | > 100 µM | > 100 µM | > 100 µM | 92 ± 7.46 µM | anti-invasive effect (HeLa cells [3]): did not have any anti-invasive effect; melting point of HSA upon addition of the complex [4]: 110 °C; ΔG^o (standard Gibbs free energy change) [5]: -19800 J; ΔH^o (standard enthalpy change) [5]: 120800 J; ΔS^o (standard entropy change) [5]: 458.15 J/K
2 | 73.5 ± 1.35 µM | 70.7 ± 4.09 µM | 66.9 ± 8.7 µM | 67.5 ± 2.78 µM | 74.22 ± 0.45 µM | 65 ± 2.75 µM | 65.8 ± 5.35 µM | 75.5 ± 3.16 µM | 62.3 ± 4.02 µM | 0.0720 | [Cl][Cu][Cl].c1csc(-c2nc3ccc(-c4ccc5nc(-c6cccs6)c(-c6cccs6)nc5c4)cc3nc2-c2cccs2)c1 [Cu(ttbq)Cl2] | 0.0137 | 42 ± 14 µM | 36 ± 6.38 µM | 54 ± 3.1 µM | 20.6 ± 2.39 µM | 32.1 ± 1.05 µM | 41 ± 0.6 µM | 69.44 ± 0.19 µM | 63.9 ± 3.56 µM | 57.4 ± 13.7 µM | anti-invasive effect (HeLa cells [3]): high anti-invasive effects; melting point of HSA upon addition of the complex [4]: 111 °C; ΔG^o (standard Gibbs free energy change) [5]: -27900 J; ΔH^o (standard enthalpy change) [5]: 53100 J; ΔS^o (standard entropy change) [5]: 258.51 J/K
3 | > 100 µM | 58.4 ± 5.35 µM | 40.3 ± 3.42 µM | > 100 µM | 58 ± 26.9 µM | 42.9 ± 1.69 µM | > 100 µM | > 100 µM | > 100 µM | 0.0261 | [Cl][Pt][Cl].c1ccc(-c2nc3ccc(-c4ccc5nc(-c6ccccn6)c(-c6ccccn6)nc5c4)cc3nc2-c2ccccn2)nc1 [Pt(tpbq)Cl2] | 0.0082 | > 100 µM | 91.9 ± 49 µM | 83.9 ± 3.16 µM | 94.8 ± 2.57 µM | > 100 µM | 99.4 ± 5.71 µM | 94.3 ± 12.3 µM | 39.4 ± 15.8 µM | 73.67 ± 0.28 µM | anti-invasive effect (HeLa cells [3]): high anti-invasive effects; melting point of HSA upon addition of the complex [4]: 109 °C; ΔG^o (standard Gibbs free energy change) [5]: -31400 J; ΔH^o (standard enthalpy change) [5]: 22900 J; ΔS^o (standard entropy change) [5]: 174.97 J/K
4 | 95 ± 2.93 µM | > 100 µM | > 100 µM | 88.9 ± 8.31 µM | 79.7 ± 24.2 µM | > 100 µM | > 100 µM | > 100 µM | > 100 µM | 0.0589 | [Cl][Pt][Cl].c1csc(-c2nc3ccc(-c4ccc5nc(-c6cccs6)c(-c6cccs6)nc5c4)cc3nc2-c2cccs2)c1 [Pt(ttbq)Cl2] | 0.0143 | 67.9 ± 16.3 µM | 44.8 ± 11.6 µM | 38.8 ± 1.46 µM | 85 ± 10.8 µM | > 100 µM | > 100 µM | 93.5 ± 18.4 µM | 65.5 ± 17.7 µM | 49.5 ± 5.73 µM | anti-invasive effect (HeLa cells [3]): higher potency to prevent the invasion; melting point of HSA upon addition of the complex [4]: 105 °C; ΔG^o (standard Gibbs free energy change) [5]: -28600 J; ΔH^o (standard enthalpy change) [5]: 33200 J; ΔS^o (standard entropy change) [5]: 198.00 J/K
